pIC50: −log10 of the molar value. In brackets after ≈: the same amount, converted by molar mass. Where two headings read alike, the source gives them in different places.

One data set has as its system S. aureus (ATCC29213). Description: 50% growth inhibitory concentration (IC50) determination assay, S. aureus. In kind it is cell-based. Particulars: Staphylococcus aureus, growth inhibition, Iso-Sensitest broth, OD 600 nm over 16h, <0.098 = the detection limit. As for the experimental part: (§1) The in vitro antimicrobial activity of the compounds against S. aureus (ATCC29213), K. pneumoniae (ATCC10031), and A. baumannii (ATCC17978), was determined according to the following procedure: The assay used a 10-points Iso-Sensitest broth medium to measure quantitatively the in vitro activity of the compounds against S. aureus ATCC29213, K. pneumoniae ATCC 10031, and A. baumannii ATCC17978. Stock compounds in DMSO were serially two-fold diluted (range from 50 to 0.097 μM final concentration) in 384 wells microtiter plates and inoculated with 49 μL the bacterial suspension in Iso-Sensitest broth medium to have a final cell concentration of ˜5×10^5 CFU/mL in a final volume/well of 50 μL/well. Microtiter plates were incubated at 35±2° C. Bacterial cell growth was determined with the measurement of optical density at λ=600 nm each 20 minutes over a time course of 16h. Growth inhibition was calculated during the logarithmic growth of the bacterial cells with determination of the concentration inhibiting 50% (IC50) of the growth. Compounds of the present invention were tested for their concentration inhibiting 50% (IC50). The data of IC50 over S. aureus (ATCC29213), K. pneumoniae (ATCC10031), and A. baumannii (ATCC17978) are illustrated in Table 4.

Data set [1] has as its system K. pneumoniae (ATCC10031). Description: 50% growth inhibitory concentration (IC50) determination assay, K. pneumoniae. Particulars: Klebsiella pneumoniae, growth inhibition, Iso-Sensitest broth, OD 600 nm over 16h, <0.098 = the detection limit. The format is cell-based. As for the experimental part: as §1
The next data set has as its system A. baumannii (ATCC17978). Description: 50% growth inhibitory concentration (IC50) determination assay, A. baumannii. Particulars: Acinetobacter baumannii, growth inhibition, Iso-Sensitest broth, OD 600 nm over 16h, <0.098 = the detection limit. The format is cell-based. As for the experimental part: as §1
A short description of data set [2]: Lyophilisation solubility assay (LYSA). The format is physicochemical. Particulars: thermodynamic from solid. As for the experimental part: The solubility of compounds of present invention was assessed by LYSA assay. Samples were prepared in duplicate from 10 mM DMSO stock solutions ([…]) diluted in 30 μL pure DMSO. After evaporation of DMSO with a centrifugal vacuum evaporator, the residue was dissolved in 0.05 M phosphate buffer (150 μL, pH 6.5), which was stirred for one hour and shook for two hours. After one night, the solution was filtered using a microtiter filter plate. Then the filtrate and its 1/10 dilution were analyzed by HPLC-UV. In addition, a four-point calibration curve was prepared from the 10 mM stock solutions and used for the solubility determination of the compounds.

Setting [3] is: aqueous buffer, 0.05 M phosphate buffer, pH 6.5, HPLC-UV, <1.0 = the detection limit, read-out: Lysa.

With `CCNc1cc(F)c(F)c2c1[nH]c1ncc(-c3cnc(OC)nc3)c(N3CCC(CN)C3)c12` (stereo not drawn) [Example 1.08, 4-[3-(Aminomethyl)pyrrolidin-1-yl]-N-ethyl-5,6-difluoro-3-(2-methoxypyrimidin-5-yl)-9H-pyrido[2,3-b]indol-8-amine], the values for the pIC50 (in the data set with S. aureus (ATCC29213); in data set [1]; in the data set with A. baumannii (ATCC17978)) were 6.10, more than 7.01 and 6.61, respectively. The solubility thermodynamic in data set [2] (setting [3]) came to 83 µg/mL (≈ 183 µM).

As to `CCNc1cc(F)c(F)c2c1[nH]c1ncc(-c3cnc4ccnn4c3)c(N3CCC(N)C3)c12` (stereo not drawn) [Example 1.09, 4-(3-Aminopyrrolidin-1-yl)-N-ethyl-5,6-difluoro-3-pyrazolo[1,5-a]pyrimidin-6-yl-9H-pyrido[2,3-b]indol-8-amine], the pIC50 was 6.62 with S. aureus (ATCC29213), more than 7.01 in data set [1] and 6.83 with A. baumannii (ATCC17978). Moreover, in data set [2] (setting [3]), the solubility thermodynamic came out at 190 µg/mL (≈ 424 µM).

In the case of `CNc1cc(F)c(F)c2c1[nH]c1ncc(-c3cncc(C#N)c3)c(N3CCC(CN)C3)c12` (stereo not drawn) [Example 1.13, 5-[4-[3-(Aminomethyl)pyrrolidin-1-yl]-5,6-difluoro-8-(methylamino)-9H-pyrido[2,3-b]indol-3-yl]pyridine-3-carbonitrile], the pIC50 with S. aureus (ATCC29213) is 5.82; in data set [1], more than 7.01; in the data set with A. baumannii (ATCC17978), 6.12. Besides, the solubility thermodynamic in data set [2] (setting [3]) turned out to be 46 µg/mL (≈ 106 µM).

In the case of `CCNc1cc(F)cc2c1[nH]c1ncc(-c3cncc(C#N)c3)c(N3CCCC(CN)C3)c12` (stereo not drawn) [Example 1.14, 5-[4-[3-(Aminomethyl)-1-piperidyl]-8-(ethylamino)-6-fluoro-9H-pyrido[2,3-b]indol-3-yl]pyridine-3-carbonitrile], the pIC50 in the data set with S. aureus (ATCC29213) is 5.92; in data set [1], more than 7.01; in the data set with A. baumannii (ATCC17978), more than 7.01. The solubility thermodynamic in data set [2] (setting [3]) stood at 10 µg/mL (≈ 22.5 µM).

Consider `CNc1cc(F)c(F)c2c1[nH]c1ncc(-c3cncc(C#N)c3)c(N3CC[C@@H](N)C3)c12` [Example 1.15, 5-[4-[(3R)-3-Aminopyrrolidin-1-yl]-5,6-difluoro-8-(methylamino)-9H-pyrido[2,3-b]indol-3-yl]pyridine-3-carbonitrile], for which the figures for the pIC50 (in the data set on S. aureus (ATCC29213); in data set [1]; in the data set on A. baumannii (ATCC17978)) were 6.28, more than 7.01 and 6.17, respectively. In addition, the solubility thermodynamic in data set [2] (setting [3]) turned out to be 169 µg/mL (≈ 403 µM).

As to `CCNc1cc(F)c(F)c2c1[nH]c1ncc(-c3cnc(OC)nc3)c(N3CC[C@@H](N)C3)c12` [Example 1.18, 4-[(3R)-3-Aminopyrrolidin-1-yl]-N-ethyl-5,6-difluoro-3-(2-methoxypyrimidin-5-yl)-9H-pyrido[2,3-b]indol-8-amine], the pIC50 with S. aureus (ATCC29213) is 6.25; in data set [1], more than 7.01; with A. baumannii (ATCC17978) it was 6.60. Also, the solubility thermodynamic in data set [2] (setting [3]) amounted to 195 µg/mL (≈ 444 µM).

For the compound `CNc1cc(F)c(F)c2c1[nH]c1ncc(-c3cnc(OC)nc3)c(N3CCC(CN)C3)c12` (stereo not drawn) [Example 1.19, 4-[3-(Aminomethyl)pyrrolidin-1-yl]-5,6-difluoro-3-(2-methoxypyrimidin-5-yl)-N-methyl-9H-pyrido[2,3-b]indol-8-amine], the pIC50 was 6.15 in the data set on S. aureus (ATCC29213), more than 7.01 in data set [1] and 6.17 in the data set on A. baumannii (ATCC17978). In data set [2] (setting [3]), the solubility thermodynamic stood at 31 µg/mL (≈ 70.5 µM).

Take `CCNc1cc(C(F)(F)F)cc2c1[nH]c1ncc(-c3cncc(C#N)c3)c(N3CCC(N)C3)c12` (stereo not drawn) [Example 1.20, 5-[4-(3-Aminopyrrolidin-1-yl)-8-(ethylamino)-6-(trifluoromethyl)-9H-pyrido[2,3-b]indol-3-yl]pyridine-3-carbonitrile]: the results for the pIC50 (with S. aureus (ATCC29213); in data set [1]; in the data set on A. baumannii (ATCC17978)) were 5.90, more than 7.01 and more than 7.01, respectively. Also, the solubility thermodynamic in data set [2] (setting [3]) was 124 µg/mL (≈ 266 µM).

For `CNc1cc(F)c(F)c2c1[nH]c1ncc(-c3cncc(C#N)c3)c(N3CCC(F)(CN)C3)c12` (stereo not drawn) [Example 1.22, 5-[4-[3-(Aminomethyl)-3-fluoro-pyrrolidin-1-yl]-5,6-difluoro-8-(methylamino)-9H-pyrido[2,3-b]indol-3-yl]pyridine-3-carbonitrile], the figures for the pIC50 (in the data set with S. aureus (ATCC29213); in data set [1]; in the data set on A. baumannii (ATCC17978)) were 6.65, more than 7.01 and 6.95, respectively. Also, the solubility thermodynamic in data set [2] (setting [3]) stood at 11 µg/mL (≈ 24.4 µM).

For the compound `CNc1cc(F)c(F)c2c1[nH]c1ncc(-c3cnc(OC)nc3)c(N3CC4CC4(CN)C3)c12` (stereo not drawn) [Example 1.27, 4-[1-(Aminomethyl)-3-azabicyclo[3.1.0]hexan-3-yl]-5,6-difluoro-3-(2-methoxypyrimidin-5-yl)-N-methyl-9H-pyrido[2,3-b]indol-8-amine], the pIC50 in the data set with S. aureus (ATCC29213) is 6.28; in data set [1], more than 7.01; in the data set on A. baumannii (ATCC17978), 6.47. Besides, in data set [2] (setting [3]), the solubility thermodynamic stood at 74 µg/mL (≈ 164 µM).

Regarding `CNc1cc(F)c(F)c2c1[nH]c1ncc(-c3cnc(OC)nc3)c(N3CCC(F)(CN)C3)c12` (stereo not drawn) [Example 1.28, 4-[3-(aminomethyl)-3-fluoro-pyrrolidin-1-yl]-5,6-difluoro-3-(2-methoxypyrimidin-5-yl)-N-methyl-9H-pyrido[2,3-b]indol-8-amine], the pIC50 in the data set on S. aureus (ATCC29213) is 6.64; in data set [1] it was more than 7.01; with A. baumannii (ATCC17978) it was 6.94. Further, the solubility thermodynamic in data set [2] (setting [3]) was found to be 88 µg/mL (≈ 192 µM).

Regarding `CNc1cc(F)c(F)c2c1[nH]c1ncc(-c3cncc(C#N)c3)c(N3CC4CC4(CN)C3)c12` (stereo not drawn) [Example 1.32, 5-[4-[1-(Aminomethyl)-3-azabicyclo[3.1.0]hexan-3-yl]-5,6-difluoro-8-(methylamino)-9H-pyrido[2,3-b]indol-3-yl]pyridine-3-carbonitrile], the results for the pIC50 (in the data set with S. aureus (ATCC29213); in data set [1]; in the data set with A. baumannii (ATCC17978)) were 5.91, more than 7.01 and 6.33, respectively. The solubility thermodynamic in data set [2] (setting [3]) was 10 µg/mL (≈ 22.4 µM).

Consider `CNc1cc(F)c(F)c2c1[nH]c1ncc(-c3cncc(C#N)c3)c(N3CCCC(N)C3)c12` (stereo not drawn) [Example 1.46, 5-(4-(3-Aminopiperidin-1-yl)-5,6-difluoro-8-(methylamino)-9H-pyrido[2,3-b]indol-3-yl)nicotinonitrile], for which the pIC50 was 6.69 in the data set with S. aureus (ATCC29213), more than 7.01 in data set [1] and 6.41 with A. baumannii (ATCC17978). In addition, in data set [2] (setting [3]), the solubility thermodynamic came to 17 µg/mL (≈ 39.2 µM).

Take `CNc1cc(F)c(F)c2c1[nH]c1ncc(-c3cnc(OC)nc3)c(N3CCCC(N)C3)c12` (stereo not drawn) [Example 1.47, 4-(3-Aminopiperidin-1-yl)-5,6-difluoro-3-(2-methoxypyrimidin-5-yl)-N-methyl-9H-pyrido[2,3-b]indol-8-amine]: the pIC50 was 6.56 in the data set on S. aureus (ATCC29213), more than 7.01 in data set [1] and 6.35 in the data set on A. baumannii (ATCC17978). The solubility thermodynamic in data set [2] (setting [3]) was 19 µg/mL (≈ 43.2 µM).

On to `CCNc1cc(F)c(F)c2c1[nH]c1ncc(-c3cnc(OC)nc3)c(N3CCC[C@@H](CN)C3)c12` [Example 1.53, (S)-4-(3-(Aminomethyl)piperidin-1-yl)-N-ethyl-5,6-difluoro-3-(2-methoxypyrimidin-5-yl)-9H-pyrido[2,3-b]indol-8-amine], for which the pIC50 with S. aureus (ATCC29213) was 6.40; in data set [1], more than 7.01; in the data set on A. baumannii (ATCC17978) it was more than 7.01. Further, the solubility thermodynamic in data set [2] (setting [3]) came to 241 µg/mL (≈ 515 µM).

On to `CNc1cc(F)c(F)c2c1[nH]c1ncc(-c3cncc(C#N)c3)c(N3CCCC(F)(CN)C3)c12` (stereo not drawn) [Example 1.54, 5-[4-[3-(Aminomethyl)-3-fluoro-1-piperidyl]-5,6-difluoro-8-(methylamino)-9H-pyrido[2,3-b]indol-3-yl]pyridine-3-carbonitrile], for which the pIC50 was 6.32 with S. aureus (ATCC29213), more than 7.01 in data set [1] and more than 7.01 with A. baumannii (ATCC17978). For the same compound, in data set [2] (setting [3]), the solubility thermodynamic was determined as 39 µg/mL (≈ 83.8 µM).

On to `CNc1cc(F)c(F)c2c1[nH]c1ncc(-c3cnc(OC)nc3)c(N3C4CNCC3C4)c12` [Example 1.57, 4-(3,6-Diazabicyclo[3.1.1]heptan-6-yl)-5,6-difluoro-3-(2-methoxypyrimidin-5-yl)-N-methyl-9H-pyrido[2,3-b]indol-8-amine], for which the pIC50 with S. aureus (ATCC29213) is 6.54; in data set [1], more than 7.01; in the data set with A. baumannii (ATCC17978), 6.50. The solubility thermodynamic in data set [2] (pH 6.5, aqueous buffer) is 91 µg/mL (≈ 208 µM).

Regarding `CCOc1ncc(-c2cnc3[nH]c4c(NC)cc(F)cc4c3c2N2C3CNCC2C3)cn1` [Example 1.59, 4-(3,6-Diazabicyclo[3.1.1]heptan-6-yl)-3-(2-ethoxypyrimidin-5-yl)-6-fluoro-N-methyl-9H-pyrido[2,3-b]indol-8-amine], the pIC50 was 6.20 in the data set with S. aureus (ATCC29213), more than 7.01 in data set [1] and 6.30 with A. baumannii (ATCC17978). The same compound gave a solubility thermodynamic in data set [2] (pH 6.5, aqueous buffer) of 395 µg/mL (≈ 911 µM).
